Experimental data as given in patent US20170280720A1, “ARGININE […] INHIBITORS AND USES THEREOF” (EPIZYME, INC., priority 2014, published 2017).

target: T1, Human CARM1 (PRMT4) (Homo sapiens, UniProt Q86X55); assay: CARM1 biochemical assay (3H-SAM Flashplate, peptide substrate); conditions: read-out: CARM1_ IC50
T1 construct: Flag-CARM1-His; made in house; host or cells: HEK 293F cells (BacMam baculovirus, pFastBacMam)
T1 sequence (Q86X55 2-585 isoform Q86X55-1): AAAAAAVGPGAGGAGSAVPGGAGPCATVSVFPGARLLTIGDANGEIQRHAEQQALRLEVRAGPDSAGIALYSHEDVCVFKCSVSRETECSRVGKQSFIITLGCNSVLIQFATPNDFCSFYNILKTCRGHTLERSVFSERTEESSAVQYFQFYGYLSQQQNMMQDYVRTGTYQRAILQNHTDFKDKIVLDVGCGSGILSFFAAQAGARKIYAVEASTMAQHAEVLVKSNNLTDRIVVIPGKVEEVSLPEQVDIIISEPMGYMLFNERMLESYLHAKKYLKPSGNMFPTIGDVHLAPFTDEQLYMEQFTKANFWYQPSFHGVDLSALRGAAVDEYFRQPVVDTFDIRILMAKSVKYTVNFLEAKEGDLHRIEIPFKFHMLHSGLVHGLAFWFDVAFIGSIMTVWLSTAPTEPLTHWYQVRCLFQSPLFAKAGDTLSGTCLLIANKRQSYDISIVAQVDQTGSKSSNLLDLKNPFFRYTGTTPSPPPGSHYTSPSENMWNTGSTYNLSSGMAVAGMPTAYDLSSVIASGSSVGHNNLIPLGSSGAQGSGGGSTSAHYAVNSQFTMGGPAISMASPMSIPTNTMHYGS
Procedure, shortened: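 FLAG/His-tagged human CARM1 (isoform 1, Δ539-561, baculovirus-expressed), 0.25 nM, preincubated 30 min at room temperature with compound (2% DMSO) in 20 mM Bicine pH 7.6, then reacted with 30 nM 3H-SAM and 250 nM biotinylated H3 16-30 peptide (R26 monomethyl). Stopped with 300 uM cold SAM; labelled peptide captured on streptavidin Flashplate; % inhibition versus DMSO and 1 mM SAH controls fitted to a 4- or 3-parameter curve.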

Structure (SMILES) | IC50
CNCCN(C)Cc1cccc(-c2nc(NCc3nccs3)c3cnn(C4CC4)c3n2)c1 [Compound 2] | 0.0168 µM
CNCCN(C)Cc1cccc(-c2nc(C(=O)NCc3cn4ccsc4n3)c3cnn(C4CC4)c3n2)c1 [Compound 180] | 0.0089 µM
CC(C)n1ncc2c(C(=O)N(C)CC3CCOCC3)cc(-c3cccc(CN(C)CCN)c3)nc21 [Compound 256] | 0.0631 µM
CN(CCN)Cc1cccc(-c2ccc(C(=O)NCC3CCOCC3)c(N(C)CC3CC3)c2)c1 [Compound 263] | 0.0722 µM
CNCCN(C)Cc1cccc(-c2cc(C(=O)N(C)Cc3ccccn3)c3cnn(C(C)C)c3n2)c1 [Compound 300] | 0.205 µM
Cc1cc(C)c(CNC(=O)c2cc(-c3cccc(CN(C)CCN)c3)nc3c2cnn3C(C)C)c(=O)[nH]1 [Compound 360] | 0.0195 µM
Cc1cc(C)c(CNC(=O)c2cc(-c3cccc(CN(C)CCN(C)C)c3)nc3c2cnn3C(C)C)c(=O)[nH]1 [Compound 361] | 0.254 µM
Cc1cc(C)c(CNC(=O)c2cc(-c3cccc(CNCCN)c3)cc3[nH]ncc23)c(=O)[nH]1 [Compound 366] | 1.39 µM
CNCCN(C)Cc1cccc(-c2cc(C(=O)NCc3c(C)cc(C)[nH]c3=O)c3cnn(C(C)C)c3c2)c1 [Compound 367] | 0.184 µM
CNCCN(C)Cc1cccc(-c2cc(C(=O)NCc3c(C)cc(C)[nH]c3=O)c3cnn(C(C)C)c3n2)c1 [Compound 368] | 0.00611 µM
CNCCN(C)Cc1cccc(-c2cc(C(=O)NCc3c(C)cc(C)[nH]c3=O)c(C)c3[nH]ncc23)c1 [Compound 372] | 4.31 µM
CNCCN(C)Cc1ccc(-c2cncc(C(=O)NCc3c(C)cc(C)[nH]c3=O)c2)cc1 [Compound 373] | 5.77 µM
Cc1cc(C)c(CNC(=O)c2cncc(-c3ccc(CN(C)CCN)cc3)c2)c(=O)[nH]1 [Compound 374] | 9.83 µM
CNCCN(C)Cc1cccc(-c2cc(C(=O)NCCCC(=O)NCc3c(C)cc(C)[nH]c3=O)c3cnn(C(C)C)c3n2)c1 [Compound 383] | 0.00839 µM
COc1nc(C)cc(C)c1CNC(=O)c1cc(-c2cccc(CN(C)CCN(C)C)c2)nc2c1cnn2C(C)C [Compound 386] | 0.209 µM

Results, then the molecule that gave them:

IC50 | Structure (SMILES)
0.0103 µM | CNCCN(C)Cc1cccc(-c2cc(C(=O)NCc3ccncc3)c3cnn(C(C)C)c3n2)c1 [Compound 182]
50 µM | Cc1cc(C)c(CNC(=O)c2cc(-c3ccc(CNCCN(C)C)cc3)nc3c2cnn3C(C)C)c(=O)[nH]1 [Compound 359]
1.98 µM | CNCCN(C)Cc1ccc(-c2cc(C(=O)NCc3c(C)cc(C)[nH]c3=O)c(C)c3n[nH]cc23)cc1 [Compound 362]
0.0144 µM | Cc1cc(C)c(CNC(=O)c2cc(-c3cccc(CNCCN)c3)nc3c2cnn3C(C)C)c(=O)[nH]1 [Compound 365]
7.26 µM | CNCCN(C)Cc1ccc(-c2cc(C(=O)NCc3c(C)cc(C)[nH]c3=O)c(C)c3nn(C4CCCC4)cc23)cc1 [Compound 370]
28.3 µM | Cc1cc(C)c(CNC(=O)c2cc(CNCCN(C)C)cc3c2cnn3C2CCCC2)c(=O)[nH]1 [Compound 371]
19.6 µM | Cc1cc(C)c(CNC(=O)c2cncc(-c3ccc(CN(C)CCN(C)C)cc3)c2)c(=O)[nH]1 [Compound 378]
6.57 µM | Cc1cc(C)c(CNC(=O)c2cncc(-c3ccc(CNCCN)cc3)c2)c(=O)[nH]1 [Compound 379]
0.00901 µM | CNCCN(C)Cc1cccc(-c2cc(C(=O)NCCCCCC(=O)NCc3c(C)cc(C)[nH]c3=O)c3cnn(C(C)C)c3n2)c1 [Compound 382]
0.0188 µM | CNCCN(C)Cc1cccc(-c2cc(C(=O)NCCC(=O)NCc3c(C)cc(C)[nH]c3=O)c3cnn(C(C)C)c3n2)c1 [Compound 384]
0.00711 µM | CNCCN(C)Cc1cccc(-c2cc(C(=O)NCCCCC(=O)NCc3c(C)cc(C)[nH]c3=O)c3cnn(C(C)C)c3n2)c1 [Compound 385]
0.141 µM | COc1nc(C)cc(C)c1CNC(=O)c1cc(-c2cccc(CNCCN)c2)nc2c1cnn2C(C)C [Compound 391]
